In brackets after ≈: the same amount, converted by molar mass.
Key:
Assay type in all cases: functional
Cryptococcus neoformans = test: Antifungal activity against Cryptococcus neoformans H99; conditions: var grubii H99
Clavispora lusitaniae = test: Antifungal activity against Candida lusitaniae 95-767
Candida tropicalis = test: Antifungal activity against Candida tropicalis 95-41
Candida albicans [1] = test: Antifungal activity against resistant Candida albicans ATCC 64124
Candida albicans [2] = test: Antifungal activity against Candida albicans 94-2181
Aspergillus niger = test: Antifungal activity against Aspergillus niger
Fusarium graminearum [3] = test: Antifungal activity against Fusarium graminearum B4-5A strain B after 48 hrs by microdilution assay
Fusarium graminearum [4] = test: Synergistic antifungal activity against Fusarium graminearum B4-5A strain B assessed as fluconazole MIC after 48 hrs by microdilution assay
Fusarium graminearum [5] = test: Synergistic antifungal activity against Fusarium graminearum B4-5A strain C assessed as fluconazole MIC after 48 hrs by microdilution assay
Fusarium graminearum [6] = test: Synergistic antifungal activity against Fusarium graminearum B4-5A strain D assessed as fluconazole MIC after 48 hrs by microdilution assay
Fusarium graminearum [7] = test: Synergistic antifungal activity against Fusarium graminearum B4-5A strain D in presence of fluconazole after 48 hrs by checkerboard method
Fusarium graminearum [8] = test: Synergistic antifungal activity against Fusarium graminearum infected in wheat plant assessed as fusarium head blight incidence at 180 mg/L in presence of 0.512 L/ha caramba (reference value: 70%)
Fusarium graminearum [9] = test: Synergistic antifungal activity against Fusarium graminearum infected in wheat plant assessed as fusarium head blight index at 360 mg/L in presence of 0.512 L/ha caramba (reference value: 53%)
Fusarium graminearum [10] = test: Synergistic antifungal activity against Fusarium graminearum infected in wheat plant assessed as contamination of wheat heads and kernels with deoxynivalenol at 360 mg/L in presence of 4 ml/L pyraclostrobin (reference value: 1.2 ppm)
Fusarium graminearum [11] = test: Synergistic antifungal activity against Fusarium graminearum infected in wheat plant assessed as contamination of wheat heads and kernels with deoxynivalenol at 360 mg/L in presence of 2.8 ml/L proline 480 SC (reference value: 1.2 ppm)

Compound: CCCCCCCCS(=O)(=O)OC[C@H]1O[C@H](O[C@@H]2[C@@H](O)[C@H](O[C@H]3O[C@H](CN)[C@@H](O)[C@H](O)[C@H]3O)[C@@H](N)C[C@H]2N)[C@H](O)[C@@H](N)[C@@H]1O
- MIC (Cryptococcus neoformans): 3.9 to 7.8 µg/mL (≈ 5.9 to 11.8 µM)
- MIC (Clavispora lusitaniae): > 7.8 µg/mL
- MIC (Candida tropicalis): 15.6 µg/mL (≈ 23.6 µM)
- MIC (Candida albicans [1]): 31.3 µg/mL (≈ 47.4 µM)
- MIC (Candida albicans [2]): > 7.8 µg/mL
- MIC (Aspergillus niger): > 150 µg/mL
- MIC (Fusarium graminearum [3]): 16 µg/mL (≈ 24.2 µM)
- MIC (Fusarium graminearum [4]): 6.25 µg/mL
- MIC (Fusarium graminearum [5]): 0.25 µg/mL
- MIC (Fusarium graminearum [6]): 0.195 µg/mL
- fractional inhibitory concentration index (FICI) (Fusarium graminearum [7]): 0.5
- Activity (Fusarium graminearum [8]): 15%
- Activity_index (Fusarium graminearum [9]): 8%
- Activity (Fusarium graminearum [10]): 1.6 ppm
- Activity (Fusarium graminearum [11]): 0.3 ppm

Source: ChEMBL document CHEMBL4257529, “Antifungal amphiphilic kanamycins: new life for an old drug” (Medchemcomm, 2018)
